Test results as given in the NIST ThermoML archive (doi:10.1016/j.fluid.2013.08.026).

Details: for surface tension liquid-gas: Maximal bubble pressure; for mass density: 101.33 kPa, Liquid, Buoyancy - hydrostatic balance

CCCCCCCn1cc[n+](C)c1.[Br-] [1-heptyl-3-methylimidazolium bromide]
Details | mass density [kg/m3] | surface tension liquid-gas [mN/m]
293.15 K | 1249 | 37.8
298.15 K | 1245.9 | 37.5
303.15 K | 1242.3 | 37.2
308.15 K | 1239.1 | 36.8
313.15 K | 1236 | 36.5
318.15 K | 1232.8 | 36.1
323.15 K | 1229.7 | 35.9
328.15 K | 1226.4 | 35.6
333.15 K | 1222.8 | 35.3
338.15 K | 1219.9 | 35
343.15 K | 1216.6 | 34.6
